From US20230102554A1 (GB002, INC., priority 2019, published 2023)
pIC50: −log10 of the molar value. Where a name gives a salt, the structure may show the parent alone.

What was measured:
[1] = target: T1, Human PDGFRα, cytoplasmic domain (GST-PDGFRα) (Homo sapiens, UniProt P16234); test: Human PDGFRα biochemical inhibition assay (off-chip Mobility Shift Assay)
T1 construct: made in house

[2] = target: T2, Human PDGFRβ, cytoplasmic domain (GST-PDGFRβ) (Homo sapiens, UniProt P09619); test: Human PDGFRβ biochemical inhibition assay (off-chip Mobility Shift Assay)
T2 construct: made in house
T2 sequence (P09619 with tags, fused parts or gaps): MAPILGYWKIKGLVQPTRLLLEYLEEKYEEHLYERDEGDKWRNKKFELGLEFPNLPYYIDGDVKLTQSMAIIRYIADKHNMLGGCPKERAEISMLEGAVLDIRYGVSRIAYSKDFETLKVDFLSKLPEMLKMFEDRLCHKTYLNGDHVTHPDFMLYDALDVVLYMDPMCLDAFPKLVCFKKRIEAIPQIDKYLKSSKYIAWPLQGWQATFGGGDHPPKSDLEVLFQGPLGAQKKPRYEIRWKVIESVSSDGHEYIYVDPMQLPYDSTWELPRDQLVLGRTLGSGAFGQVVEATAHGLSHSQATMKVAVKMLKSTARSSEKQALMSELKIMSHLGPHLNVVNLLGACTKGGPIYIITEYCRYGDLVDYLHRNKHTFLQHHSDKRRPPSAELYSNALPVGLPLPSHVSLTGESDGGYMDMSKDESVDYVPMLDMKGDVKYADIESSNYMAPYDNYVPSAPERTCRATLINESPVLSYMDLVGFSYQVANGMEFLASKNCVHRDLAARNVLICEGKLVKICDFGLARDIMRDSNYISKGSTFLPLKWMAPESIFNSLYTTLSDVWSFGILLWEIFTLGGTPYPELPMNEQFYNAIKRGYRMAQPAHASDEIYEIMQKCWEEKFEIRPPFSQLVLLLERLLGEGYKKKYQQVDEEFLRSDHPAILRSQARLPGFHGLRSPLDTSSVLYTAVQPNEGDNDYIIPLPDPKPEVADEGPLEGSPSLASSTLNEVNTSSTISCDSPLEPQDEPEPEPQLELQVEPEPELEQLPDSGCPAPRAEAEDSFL
How it was run: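 GST-tagged cytoplasmic domain (aa 557-1106) from baculovirus was incubated 1 h at room temperature with compound, CSKtide, ATP at Km and Mg²⁺ in HEPES buffer, pH 7.5. Phosphorylated and unphosphorylated peptide were separated by off-chip mobility shift, and the product ratio P/(P+S) gave percent inhibition.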

T1 sequence (P16234 550-1089 T674I): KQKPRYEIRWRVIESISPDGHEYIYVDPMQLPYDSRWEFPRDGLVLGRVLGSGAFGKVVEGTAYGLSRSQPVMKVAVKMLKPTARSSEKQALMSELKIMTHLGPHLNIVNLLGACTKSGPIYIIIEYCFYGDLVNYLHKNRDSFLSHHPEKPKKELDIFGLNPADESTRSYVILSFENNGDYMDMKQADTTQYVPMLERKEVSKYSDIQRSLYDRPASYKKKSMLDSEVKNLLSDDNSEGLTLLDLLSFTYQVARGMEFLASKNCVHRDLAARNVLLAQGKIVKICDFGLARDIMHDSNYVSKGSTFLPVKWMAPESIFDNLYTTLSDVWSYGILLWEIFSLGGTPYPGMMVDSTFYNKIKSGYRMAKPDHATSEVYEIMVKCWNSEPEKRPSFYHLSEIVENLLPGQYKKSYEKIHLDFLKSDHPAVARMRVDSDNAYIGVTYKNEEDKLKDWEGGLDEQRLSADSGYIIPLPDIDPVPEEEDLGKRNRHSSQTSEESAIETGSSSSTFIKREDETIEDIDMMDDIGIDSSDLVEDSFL

| SMILES | pIC50 [1] | pIC50 [2] |
| --- | --- | --- |
| CCn1cc2ncc(N[C@@H](C)c3cccc(NC(=O)c4ccc(CN5CCN(C6CC6)CC5)c(C)c4)c3)nc2n1 [Compound 462, (S)-4-((4-cyclopropylpiperazin-1-yl)methyl)-N-(3-(1-((2-ethyl-2H-pyrazolo[3,4-b]pyrazin-6-yl)amino)ethyl)phenyl)-3-methylbenzamide] | > 6.52 | > 6.52 |
| Cc1cncc(C(=O)Nc2cc(F)cc([C@H](C)Nc3cnc4cnn(C)c4n3)c2)c1 [Compound 171, (S)-N-(3-fluoro-5-(1-((1-methyl-1H-pyrazolo[3,4-b]pyrazin-6-yl)amino)ethyl)phenyl)-5-methylnicotinamide] | > 6.52 | > 6.52 |
| Cc1cncc(C(=O)Nc2cccc([C@H](C)Nc3cnc4cc(F)c(F)cc4c3)c2)c1 [Compound 30, (S)-N-(3-(1-((6,7-difluoroquinolin-3-yl)amino)ethyl)phenyl)-5-methylnicotinamide] | > 6.52 | 6.00 to 6.52 |
| CCn1cc2ncc(N[C@@H](C)c3cccc(NC(=O)c4cnc(N5CCOCC5)c(C)c4)c3)nc2n1 [Compound 358, (S)-N-(3-(1-((2-ethyl-2H-pyrazolo[3,4-b]pyrazin-6-yl)amino)ethyl)phenyl)-5-methyl-6-morpholinonicotinamide] | > 6.52 | > 6.52 |
| CCn1cc2ncc(N[C@@H](C)c3cccc(NC(=O)c4ccc(CN5CCOCC5)cc4)c3)nc2n1 [Compound 374, (S)-N-(3-(1-((2-ethyl-2H-pyrazolo[3,4-b]pyrazin-6-yl)amino)ethyl)phenyl)-4-(morpholinomethyl)benzamide] | 6.00 to 6.52 | 6.00 to 6.52 |
| C[C@H](Nc1cnc2cnn(C)c2n1)c1cccc(NC(=O)c2cnc(C(F)F)s2)c1 [Compound 141, (S)-2-(difluoromethyl)-N-(3-(1-((1-methyl-1H-pyrazolo[3,4-b]pyrazin-6-yl)amino)ethyl)phenyl)thiazole-5-carboxamide] | > 6.52 | > 6.52 |
| CCn1cc2ncc(N[C@@H](C)c3cccc(NC(=O)c4cnc(NCCOC)c(C)c4)c3)nc2n1 [Compound 392, (S)-N-(3-(1-((2-ethyl-2H-pyrazolo[3,4-b]pyrazin-6-yl)amino)ethyl)phenyl)-6-((2-methoxyethyl)amino)-5-methylnicotinamide] | 6.00 to 6.52 | ≤ 6.00 |
| Cc1cncc(C(=O)Nc2cccc([C@H](C)Nc3cnc4cn(CC5CC5)nc4n3)c2)c1 [Compound 275, (S)-N-(3-(1-((2-(cyclopropylmethyl)-2H-pyrazolo[3,4-b]pyrazin-6-yl)amino)ethyl)phenyl)-5-methylnicotinamide] | > 6.52 | > 6.52 |
| COc1cc(C(=O)Nc2cccc([C@H](C)Nc3cnc4cnn(C)c4n3)c2)cnc1Cl [Compound 249, (S)-6-chloro-5-methoxy-N-(3-(1-((1-methyl-1H-pyrazolo[3,4-b]pyrazin-6-yl)amino)ethyl)phenyl)nicotinamide] | > 6.52 | > 6.52 |
| C[C@H](Nc1cnc2cnn(C)c2n1)c1cccc(NC(=O)c2cnc3c(c2)CCCO3)c1 [Compound 70, (S)-N-(3-(1-((1-methyl-1H-pyrazolo[3,4-b]pyrazin-6-yl)amino)ethyl)phenyl)-3,4-dihydro-2H-pyrano[2,3-b] pyridine-6-carboxamide] | > 6.52 | > 6.52 |
| Cc1cc(C(=O)Nc2cccc([C@H](C)Nc3cnc4cnn(C)c4n3)c2)cnn1 [Compound 132, (S)-6-methyl-N-(3-(1-((1-methyl-1H-pyrazolo[3,4-b]pyrazin-6-yl)amino)ethyl)phenyl)pyridazine-4-carboxamide] | > 6.52 | ≤ 6.00 |
| COc1ncc(C(=O)Nc2cccc([C@H](C)Nc3cnc4cnn(C)c4n3)c2)cc1Cl [Compound 187, (S)-5-chloro-6-methoxy-N-(3-(1-((1-methyl-1H-pyrazolo[3,4-b]pyrazin-6-yl)amino)ethyl)phenyl)nicotinamide] | > 6.52 | > 6.52 |
| CCn1cc2ncc(N[C@@H](C)c3cccc(NC(=O)c4cnc(C(F)(F)F)s4)c3)nc2n1 [Compound 295, (S)-N-(3-(1-((2-ethyl-2H-pyrazolo[3,4-b]pyrazin-6-yl)amino)ethyl)phenyl)-2-(trifluoromethyl)thiazole-5-carboxamide] | > 6.52 | > 6.52 |
| C[C@H](Nc1cnc2cnn(C)c2n1)c1cccc(NC(=O)c2cccc(S(C)(=O)=O)c2)c1 [Compound 226, (S)-N-(3-(1-((1-methyl-1H-pyrazolo[3,4-b]pyrazin-6-yl)amino)ethyl)phenyl)-3-(methylsulfonyl)benzamide] | > 6.52 | > 6.52 |
| Cc1ccc(C(=O)Nc2cccc([C@H](C)Nc3cnc4cnn(C)c4n3)c2)s1 [Compound 133, (S)-5-methyl-N-(3-(1-((1-methyl-1H-pyrazolo[3,4-b]pyrazin-6-yl)amino)ethyl)phenyl)thiophene-2-carboxamide] | > 6.52 | > 6.52 |
| Cc1cc(C(=O)Nc2cccc([C@H](C)Nc3cnc4cnn(C)c4n3)c2)cnc1C(F)(F)F [Compound 125, (S)-5-methyl-N-(3-(1-((1-methyl-1H-pyrazolo[3,4-b]pyrazin-6-yl)amino)ethyl)phenyl)-6-(trifluoromethyl) nicotinamide] | > 6.52 | > 6.52 |
| Cc1cncc(C(=O)Nc2cccc([C@H](C)Nc3cnc4ccccc4n3)c2)c1 [Compound 4, (5)-5-methyl-N-(3-(1-(quinoxalin-2-ylamino)ethyl)phenyl)nicotinamide trifluoroacetate] | > 6.52 | > 6.52 |
| COc1ccc(-n2ccc3ncc(N[C@@H](C)c4cccc(NC(=O)c5cncc(C)c5)c4)cc32)cc1OC [Compound 6, (S)—N-(3-(1-((1-(3,4-dimethoxyphenyl)-1H-pyrrolo[3,2-b]pyridin-6-yl)amino)ethyl)phenyl)-5-methylnicotinamide] | > 6.52 | ≤ 6.00 |

The remaining lines, values ahead:

| pIC50 [1] | pIC50 [2] | SMILES |
| --- | --- | --- |
| 6.00 to 6.52 | > 6.52 | Cc1cncc(C(=O)Nc2cccc([C@H](C)Nc3cnc4[nH]cc(C5CC5)c4n3)c2)c1 [Compound 569, (S)-N-(3-(1-((7-cyclopropyl-5H-pyrrolo[2,3-b]pyrazin-2-yl)amino)ethyl)phenyl)-5-methylnicotinamide] |
| > 6.52 | > 6.52 | CCn1cc2ncc(N[C@@H](C)c3cccc(NC(=O)Nc4cc(C)ccn4)c3)nc2n1 [Compound 735, (S)-1-(3-(1-((2-ethyl-2H-pyrazolo[3,4-b]pyrazin-6-yl)amino)ethyl)phenyl)-3-(4-methylpyridin-2-yl)urea] |
| > 6.52 | ≤ 6.00 | CCn1cc2ncc(N[C@@H](C)c3cccc(NC(=O)Cc4ccc5c(n4)OCCC5)c3)nc2n1 [Compound 720, (S)-2-(3,4-dihydro-2H-pyrano[2,3-b]pyridin-7-yl)-N-(3-(1-((2-ethyl-2H-pyrazolo[3,4-b]pyrazin-6-yl)amino)ethyl)phenyl)acetamide] |
| > 6.52 | > 6.52 | CCn1cc2ncc(N[C@@H](C)c3cccc(NC(=O)Cc4ccc(F)c(C)c4)c3)nc2n1 [Compound 632, (S)-N-(3-(1-((2-ethyl-2H-pyrazolo[3,4-b]pyrazin-6-yl)amino)ethyl)phenyl)-2-(4-fluoro-3-methylphenyl) acetamide] |
| > 6.52 | > 6.52 | C[C@H](Nc1cnc2[nH]ccc2n1)c1cc(NC(=O)c2cnn(C3CCC3)c2)ccc1F [Compound 597, (S)-N-(3-(1-((5H-pyrrolo[2,3-b]pyrazin-2-yl)amino)ethyl)-4-fluorophenyl)-1-cyclobutyl-1H-pyrazole-4-carboxamide] |
| > 6.52 | > 6.52 | Cc1n[nH]c2ncc(N[C@@H](C)c3cccc(NC(=O)c4cnn(C(F)F)c4)c3)nc12 [Compound 546, (S)-1-(difluoromethyl)-N-(3-(1-((3-methyl-1H-pyrazolo[3,4-b]pyrazin-5-yl)amino)ethyl)phenyl)-1H-pyrazole-4-carboxamide] |
| > 6.52 | > 6.52 | CCn1cc2ncc(N[C@@H](C)c3cc(NC(=O)Cc4cc(C)c(C)cn4)ccc3C)nc2n1 [Compound 694, (S)-2-(4,5-dimethylpyridin-2-yl)-N-(3-(1-((2-ethyl-2H-pyrazolo[3,4-b]pyrazin-6-yl)amino)ethyl)-4-methylphenyl) acetamide] |
| > 6.52 | ≤ 6.00 | CCn1cc2ncc(N[C@@H](C)c3cc(NC(=O)Cc4ccc(C5CCC5)nc4)ccc3C)nc2n1 [Compound 672, (S)-2-(6-cyclobutylpyridin-3-yl)-N-(3-(1-((2-ethyl-2H-pyrazolo[3,4-b]pyrazin-6-yl)amino)ethyl)-4-methylphenyl) acetamide] |
| > 6.52 | > 6.52 | CCn1cc2ncc(N[C@@H](C)c3cc(NC(=O)Cc4cncc(C(F)(F)F)c4)ccc3C)nc2n1 [Compound 692, (S)-N-(3-(1-((2-ethyl-2H-pyrazolo[3,4-b]pyrazin-6-yl)amino)ethyl)-4-methylphenyl)-2-(5-(trifluoromethyl)pyridin-3-yl)acetamide] |
| > 6.52 | > 6.52 | CCn1cc2ncc(N[C@@H](C)c3cc(NC(=O)c4ccc(Cl)c(C)c4)ccc3C)nc2n1 [Compound 508, (S)-4-chloro-N-(3-(1-((2-ethyl-2H-pyrazolo[3,4-b]pyrazin-6-yl)amino)ethyl)-4-methylphenyl)-3-methylbenzamide] |
| 6.00 to 6.52 | ≤ 6.00 | CCn1cc2ncc(N[C@@H](C)c3cc(NC(=O)Cc4ccc(C5CC5)nc4)ccc3F)nc2n1 [Compound 658, (S)-2-(6-cyclopropylpyridin-3 - yl)-N-(3-(1-((2-ethyl-2H-pyrazolo[3,4-b]pyrazin-6-yl)amino)ethyl)-4-fluorophenyl) acetamide] |
| > 6.52 | ≤ 6.00 | Cc1cncc(NC(=O)c2cccc([C@H](C)Nc3cnc4cnn(C)c4n3)c2)c1 [Compound 744, (S)-3-(1-((1-methyl-H-pyrazolo[3,4-b]pyrazin-6-yl)amino)ethyl)-N-(5-methylpyridin-3-yl)benzamide] |
